In PubChem BioAssay (NCI) one finds TGI and GI50 data, which are given here for eight compounds.

Among the test systems are OVCAR-4 ovarian; SF-268 CNS; HCT-116 colon; A498 renal; UACC-62 melanoma; SF-295 CNS; SK-MEL-28 melanoma; IGROV1 ovarian; M14 melanoma; HCC-2998 colon.
What all share (assay): NCI tumour cell line growth inhibition, 48 h

SMILES strings stand for the structures.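 Briefly, cells in 96-well plates were exposed to five compound concentrations for 48 h, and endpoints were estimated by linear interpolation. Here, GI50 denotes the concentration required for 50% inhibition of growth. Definition used: TGI = concentration required for complete inhibition of growth.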 Bounds are passed on as bounds.

In the case of `CCOC(=O)/C(O)=C/c1cc(OC)cc(=O)o1`, the TGI in the assay on OVCAR-4 ovarian, in the assay with SF-268 CNS, in the assay on HCT-116 colon, in the assay on A498 renal, in the assay on UACC-62 melanoma and with SF-295 CNS was over 100 µM throughout. The TGI in the assay with SK-MEL-28 melanoma, with IGROV1 ovarian, in the assay with M14 melanoma and in the assay on HCC-2998 colon was over 100 µM throughout.
For the compound `COc1ccc(N2Cc3cnc(Nc4ccccc4)nc3N([C@@H]3CC[C@@H](O)C3)C2=O)cc1`, the GI50 in the assay with OVCAR-4 ovarian was 2.43 µM; in the assay with SF-268 CNS it was 5.05 µM; in the assay with HCT-116 colon, 2.84 µM; in the assay with A498 renal, 0.128 µM; in the assay with UACC-62 melanoma, 2.74 µM; with SF-295 CNS it was 17.6 µM. The GI50 with SK-MEL-28 melanoma was 8.19 µM; in the assay on IGROV1 ovarian it was 2.46 µM; with M14 melanoma, 3.7 µM; in the assay on HCC-2998 colon it was 18.8 µM. Moreover, the TGI in the assay on OVCAR-4 ovarian was over 25 µM; in the assay on SF-268 CNS it was over 25 µM; in the assay on HCT-116 colon, over 25 µM; with A498 renal it was 1.2 µM; with UACC-62 melanoma, over 25 µM; in the assay with SF-295 CNS, over 25 µM. For the same compound, the TGI in the assay with SK-MEL-28 melanoma is over 25 µM; in the assay on IGROV1 ovarian, over 18.5 µM; in the assay with M14 melanoma it was over 25 µM; in the assay with HCC-2998 colon it was over 25 µM.
In the case of `O=C1c2ccc([N+](=O)[O-])cc2-c2c1c1ccccc1c(=O)n2CCCNCCCNCCCn1c2c(c3ccc([N+](=O)[O-])cc3c1=O)C(=O)c1ccccc1-2`, the GI50 was 1.06 µM with OVCAR-4 ovarian; 0.988 µM in the assay on SF-268 CNS; 0.933 µM in the assay on HCT-116 colon; 2.05 µM with A498 renal; 1.71 µM in the assay with UACC-62 melanoma; 2.23 µM with SF-295 CNS. For the same compound, the GI50 in the assay with SK-MEL-28 melanoma is 3.83 µM; with IGROV1 ovarian it was 2.43 µM; in the assay with M14 melanoma it was 13.6 µM; in the assay on HCC-2998 colon it was 3.08 µM. Further, the TGI in the assay with OVCAR-4 ovarian is 2.88 µM; with SF-268 CNS it was 12.8 µM; with HCT-116 colon, 2.91 µM; in the assay on A498 renal, 8.88 µM; in the assay on UACC-62 melanoma it was 4.85 µM; in the assay with SF-295 CNS it was 20.7 µM. The TGI turned out to be 15.9 µM with SK-MEL-28 melanoma, 15.8 µM in the assay on IGROV1 ovarian, 33.9 µM with M14 melanoma and 9.77 µM in the assay on HCC-2998 colon.
On to `CN1CCN(c2ccc(NC(=O)c3nc4ccc5[nH]ncc5c4c4c3CCCC4)cc2C(F)(F)F)CC1`, for which the GI50 with OVCAR-4 ovarian is 1.45 µM; with SF-268 CNS, 3.89 µM; in the assay on HCT-116 colon it was 0.814 µM; in the assay on A498 renal, over 50 µM; in the assay with UACC-62 melanoma it was 0.973 µM; in the assay on SF-295 CNS, 1.39 µM. The GI50 in the assay with SK-MEL-28 melanoma is 0.941 µM; in the assay on IGROV1 ovarian, 0.821 µM; in the assay on M14 melanoma it was 0.861 µM; in the assay on HCC-2998 colon, 1.1 µM. The TGI was 6.81 µM in the assay on OVCAR-4 ovarian; 19.3 µM in the assay on SF-268 CNS; 1.5 µM with HCT-116 colon; over 50 µM in the assay on A498 renal; 1.83 µM with UACC-62 melanoma; 4.16 µM with SF-295 CNS. Moreover, the TGI is 1.71 µM in the assay with SK-MEL-28 melanoma, 1.73 µM in the assay on IGROV1 ovarian, 1.71 µM in the assay with M14 melanoma and 2.99 µM in the assay on HCC-2998 colon.
`O=[N+]([O-])c1ccc(S(=O)Cc2ccccc2)c([N+](=O)[O-])c1` (stereo not given): the GI50 in the assay with OVCAR-4 ovarian was 1.5 µM; in the assay on SF-268 CNS, 13.4 µM; in the assay on HCT-116 colon, 1.29 µM; with A498 renal, 13 µM; in the assay with UACC-62 melanoma it was 2.55 µM; with SF-295 CNS, 13.2 µM. Moreover, the GI50 with SK-MEL-28 melanoma is 1.89 µM; in the assay on IGROV1 ovarian, 14.1 µM; with M14 melanoma, 1.81 µM; in the assay on HCC-2998 colon it was 16.6 µM. Also, the TGI in the assay with OVCAR-4 ovarian stood at 2.93 µM; in the assay on SF-268 CNS, 26.6 µM; with HCT-116 colon, 2.55 µM; in the assay on A498 renal it was 25.7 µM; in the assay on UACC-62 melanoma, 8.89 µM; in the assay on SF-295 CNS, 26.9 µM. Further, the TGI was 4.13 µM in the assay with SK-MEL-28 melanoma, 33.9 µM with IGROV1 ovarian, 4.84 µM in the assay on M14 melanoma and 30.2 µM with HCC-2998 colon.
In the case of `Cc1ccc(-c2cc(-c3ccco3)c(C#N)c(=O)[nH]2)cc1`, the TGI with OVCAR-4 ovarian, in the assay with SF-268 CNS, in the assay with HCT-116 colon, with A498 renal, with UACC-62 melanoma and with SF-295 CNS was over 100 µM each time. Moreover, the TGI in the assay on SK-MEL-28 melanoma, in the assay on IGROV1 ovarian, in the assay on M14 melanoma and in the assay on HCC-2998 colon was over 100 µM throughout.
Regarding `C=C1SC(=Nc2c(C)cc(C)cc2C)N(C(=O)c2sc3ccccc3c2Cl)C12CCCCC2`, the GI50 in the assay on OVCAR-4 ovarian was over 100 µM; in the assay on SF-268 CNS, over 100 µM; in the assay with HCT-116 colon it was over 100 µM; in the assay with A498 renal it was over 100 µM; in the assay on UACC-62 melanoma it was 78.5 µM; with SF-295 CNS, 42.3 µM. Besides, the GI50 with SK-MEL-28 melanoma is over 100 µM; in the assay with IGROV1 ovarian, over 100 µM; in the assay on M14 melanoma it was over 100 µM; with HCC-2998 colon, 44.7 µM. In addition, the TGI in the assay with OVCAR-4 ovarian, in the assay with SF-268 CNS, in the assay with HCT-116 colon, with A498 renal, with UACC-62 melanoma and in the assay on SF-295 CNS was over 100 µM in each case. Moreover, the TGI in the assay with SK-MEL-28 melanoma, in the assay on IGROV1 ovarian, in the assay with M14 melanoma and in the assay with HCC-2998 colon was over 100 µM each time.
`COc1ccc(Nc2ncc(Br)c(NCCCNC(=O)C3CCC3)n2)cc1`: the GI50 was 11.3 µM in the assay on OVCAR-4 ovarian; 4.78 µM in the assay with SF-268 CNS; 8.31 µM in the assay with HCT-116 colon; 12.3 µM in the assay with A498 renal; 17.7 µM with UACC-62 melanoma; 11 µM in the assay on SF-295 CNS. Besides, the GI50 was 33.4 µM in the assay on SK-MEL-28 melanoma, 14.6 µM in the assay on IGROV1 ovarian, 31.5 µM in the assay on M14 melanoma and 21.7 µM in the assay with HCC-2998 colon. Further, the TGI in the assay on OVCAR-4 ovarian stood at 56 µM; in the assay on SF-268 CNS it was 41.6 µM; in the assay with HCT-116 colon, 82.3 µM; in the assay with A498 renal, 27.2 µM; in the assay with UACC-62 melanoma it was 36.3 µM; in the assay on SF-295 CNS it was 89.4 µM. The TGI in the assay with SK-MEL-28 melanoma was over 100 µM; with IGROV1 ovarian it was 44.5 µM; with M14 melanoma, over 100 µM; with HCC-2998 colon, 58.1 µM.
